We go through nine compounds from PubChem BioAssay (NCI).

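Interpolation was linear, between the two tested concentrations surrounding the appropriate level; five concentrations were tested over 48 hours in 96-well plates. At the GI50, growth is halved. TGI denotes the concentration required for complete inhibition of growth.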

Test systems include PC-3 prostate; HOP-62 NSCLC; SK-OV-3 ovarian; K-562 leukemia; OVCAR-5 ovarian; HCT-15 colon; RXF 393 renal; SK-MEL-28 melanoma; T-47D breast; EKVX NSCLC.
Common to all, as to test: NCI anticancer screen, dose series, 48 h

Regarding `COc1ccc(/C=C\c2cc(OC)c(OC)c(OC)c2)cc1NC(=O)[C@@H](N)CO`, the GI50 with PC-3 prostate was 0.0188 µM; in the experiment on HOP-62 NSCLC it was 0.0267 µM; with SK-OV-3 ovarian, under 0.0124 µM; in the experiment with K-562 leukemia, under 0.01 µM; in the experiment with OVCAR-5 ovarian, under 0.023 µM; in the experiment with HCT-15 colon it was 0.0165 µM. The GI50 in the experiment with RXF 393 renal was under 0.01 µM. The TGI in the experiment with PC-3 prostate, in the experiment with HOP-62 NSCLC, with SK-OV-3 ovarian, in the experiment on K-562 leukemia, with OVCAR-5 ovarian and in the experiment with HCT-15 colon was over 100 µM each time. Further, the TGI with RXF 393 renal worked out at 26.7 µM.

As for `N#Cc1c2ccccc2c2nnc3cc(C(F)(F)F)ccc3n12`, the GI50 in the experiment on PC-3 prostate is 48.1 µM; with SK-MEL-28 melanoma it was 92.3 µM; with HOP-62 NSCLC it was 27.6 µM; in the experiment with SK-OV-3 ovarian, over 100 µM; in the experiment on T-47D breast it was over 100 µM; with K-562 leukemia it was 48.3 µM. For the same compound, the GI50 in the experiment on EKVX NSCLC was over 100 µM; with HCT-15 colon, 93.4 µM. In addition, the TGI with PC-3 prostate was over 100 µM; in the experiment on SK-MEL-28 melanoma, over 100 µM; in the experiment with HOP-62 NSCLC it was 58.3 µM; in the experiment with SK-OV-3 ovarian it was over 100 µM; in the experiment with T-47D breast, over 100 µM; with K-562 leukemia, over 100 µM. Also, the TGI in the experiment with EKVX NSCLC and with HCT-15 colon was over 100 µM throughout.

Regarding `CCN(Cc1ccc(F)cc1F)c1ccc(CO)c(Cl)c1`, the GI50 in the experiment with PC-3 prostate was 16.3 µM; in the experiment on SK-MEL-28 melanoma it was 14.1 µM; with HOP-62 NSCLC, 1.84 µM; in the experiment with SK-OV-3 ovarian, 7.65 µM; in the experiment on T-47D breast it was 0.105 µM; in the experiment with K-562 leukemia, 1.65 µM. Also, the GI50 was 0.0685 µM with OVCAR-5 ovarian, 11.2 µM in the experiment with HCT-15 colon and 2.26 µM in the experiment with RXF 393 renal. The TGI in the experiment on PC-3 prostate is 49.2 µM; in the experiment on SK-MEL-28 melanoma, 27.7 µM; with HOP-62 NSCLC, 20.2 µM; in the experiment on SK-OV-3 ovarian, 22.1 µM; with T-47D breast, 0.701 µM; with K-562 leukemia, over 100 µM. The figures for the TGI with OVCAR-5 ovarian, with HCT-15 colon and in the experiment with RXF 393 renal were 0.317 µM, 30.5 µM and 14.5 µM, respectively.

`COC(=O)C/C(C)=C/[C@@H](O)[C@H]1O[C@@H]2CC/C(Cl)=C/C/C=C(/C)[C@H](OC(C)=O)CC(=O)O[C@@H]1C2`: the GI50 was 1.08 µM with PC-3 prostate; 1.04 µM with SK-MEL-28 melanoma; 2.5 µM in the experiment with HOP-62 NSCLC; 4.34 µM in the experiment on K-562 leukemia; 8.17 µM in the experiment on OVCAR-5 ovarian; 4.93 µM with EKVX NSCLC. For the same compound, the results for the GI50 with HCT-15 colon and with RXF 393 renal were 8.01 µM and 2.34 µM, respectively. Besides, the TGI was 4.13 µM with PC-3 prostate; 5.75 µM in the experiment on SK-MEL-28 melanoma; 7.17 µM in the experiment on HOP-62 NSCLC; over 25 µM in the experiment on K-562 leukemia; over 25 µM in the experiment on OVCAR-5 ovarian; 14.3 µM in the experiment on EKVX NSCLC. Further, the TGI with HCT-15 colon is over 25 µM; in the experiment with RXF 393 renal, 9.23 µM.

With `CCN(CC)c1ccc2[nH]c3c(C(N)=O)cc(=O)c(=O)c=3oc2c1`, the GI50 in the experiment on PC-3 prostate was 2.52 µM; in the experiment with SK-MEL-28 melanoma, 3.76 µM; in the experiment with HOP-62 NSCLC it was 0.445 µM; with T-47D breast it was 2.58 µM; with K-562 leukemia, 1.93 µM; in the experiment with OVCAR-5 ovarian, 3.66 µM. The GI50 with EKVX NSCLC was 2.79 µM; with HCT-15 colon, 1.51 µM; with RXF 393 renal it was 1.37 µM. The TGI in the experiment on PC-3 prostate was over 100 µM; in the experiment on SK-MEL-28 melanoma it was 17.2 µM; in the experiment with HOP-62 NSCLC it was 15.4 µM; with T-47D breast it was over 100 µM; in the experiment on K-562 leukemia, over 100 µM; with OVCAR-5 ovarian, 33.4 µM. Besides, the TGI in the experiment with EKVX NSCLC was 15.7 µM; in the experiment with HCT-15 colon, over 100 µM; in the experiment on RXF 393 renal, 6.39 µM.

With `CCOC(=O)c1[nH]c2cccc3c2c1CC(Br)C3=O` (centres undefined), the TGI stood at 33 µM in the experiment with PC-3 prostate; 38.4 µM in the experiment on SK-MEL-28 melanoma; 33.6 µM in the experiment with HOP-62 NSCLC; 54.7 µM in the experiment on SK-OV-3 ovarian; 40.9 µM in the experiment on T-47D breast; 34.5 µM in the experiment on OVCAR-5 ovarian. In addition, the TGI was found to be 32.2 µM in the experiment with EKVX NSCLC and 18.8 µM in the experiment on HCT-15 colon.

Take `COc1c(O)cc2oc3cc(O)c(CC=C(C)C)c(O)c3c(=O)c2c1C/C=C(\C)CCC=C(C)C`: the GI50 in the experiment on PC-3 prostate was 5.55 µM; in the experiment with SK-MEL-28 melanoma it was 5.4 µM; in the experiment on HOP-62 NSCLC, 5.66 µM; in the experiment on SK-OV-3 ovarian, 5.86 µM; with K-562 leukemia, 7.29 µM; in the experiment with OVCAR-5 ovarian it was 5.19 µM. In addition, the results for the GI50 in the experiment with EKVX NSCLC, in the experiment on HCT-15 colon and in the experiment on RXF 393 renal were 4.89 µM, 5.69 µM and 5.53 µM, respectively. For the same compound, the TGI in the experiment with PC-3 prostate was determined as 11.2 µM; with SK-MEL-28 melanoma, 10.3 µM; in the experiment on HOP-62 NSCLC it was 10.1 µM; with SK-OV-3 ovarian, 10.4 µM; in the experiment on K-562 leukemia it was 16.6 µM; with OVCAR-5 ovarian it was 10.6 µM. Moreover, the results for the TGI in the experiment on EKVX NSCLC, with HCT-15 colon and in the experiment with RXF 393 renal were 9.75 µM, 11.7 µM and 10.2 µM, respectively.

As to `OCc1ccc(N(Cc2ccc(F)cc2)C2CCC2)cc1Cl`, the GI50 was 11.9 µM in the experiment on PC-3 prostate; 13.5 µM in the experiment with SK-MEL-28 melanoma; 2.05 µM in the experiment on HOP-62 NSCLC; 11 µM with SK-OV-3 ovarian; 0.141 µM in the experiment with T-47D breast; 1.01 µM with K-562 leukemia. For the same compound, the values for the GI50 in the experiment with OVCAR-5 ovarian, with HCT-15 colon and with RXF 393 renal were 0.106 µM, 10.9 µM and 3.57 µM, respectively. Moreover, the TGI in the experiment with PC-3 prostate was determined as 24.8 µM; in the experiment with SK-MEL-28 melanoma, 26.4 µM; with HOP-62 NSCLC, 17.5 µM; with SK-OV-3 ovarian, 23 µM; in the experiment with T-47D breast, 0.815 µM; with K-562 leukemia it was 15 µM. Besides, the TGI in the experiment with OVCAR-5 ovarian was determined as 0.495 µM; in the experiment on HCT-15 colon, 25.7 µM; in the experiment on RXF 393 renal it was 16.6 µM.

Regarding `O=C(O)C(Cc1ccccc1-c1ccccc1)C(=O)O`, the TGI in the experiment with PC-3 prostate, in the experiment with SK-MEL-28 melanoma, in the experiment with T-47D breast, in the experiment on K-562 leukemia, in the experiment with OVCAR-5 ovarian and in the experiment with EKVX NSCLC was over 100 µM each time. Also, the TGI in the experiment on HCT-15 colon and in the experiment on RXF 393 renal was over 100 µM each time.
